In ChEMBL document CHEMBL1156732, “Identification of SVM-based classification model, synthesis and evaluation of prenylated flavonoids as vasorelaxant agents” (Bioorg Med Chem, 2008):

Legend:
Aorta [1] = test: Vasorelaxant activity against phenylephrine-induced contraction in Sprague-Dawley rat aorta relative to phenylephrine; type: functional
Aorta [2] = test: Vasorelaxant activity against phenylephrine-induced contraction in Sprague-Dawley rat aorta; type: functional, tissue-based

SMILES	Emax (Aorta [1]) [%]	EC50 (Aorta [2]) [µM]
CC(C)=CCc1c(O)cc(O)c2c1OC(c1ccc3c(c1)OCO3)CC2=O (racemic)	77.3	1.32
COc1cc(C2CC(=O)c3c(O)cc(O)c(CC=C(C)C)c3O2)ccc1O (racemic)	95.8	10.1
CC(C)=CCc1c(O)cc(O)c2c(=O)cc(-c3cccc(Br)c3)oc12	82.8	95.9
CC(C)=CCc1c(O)cc(O)c2c(=O)cc(-c3cccc(O)c3)oc12	64.6	
CC(C)=CCc1c(O)cc(O)c(C(=O)/C=C/c2ccc3c(c2)OCO3)c1O	90	4.21
COc1cc(-c2cc(=O)c3c(O)cc(O)c(CC=C(C)C)c3o2)cc(OC)c1OC	90.1	64.3
COc1cc(/C=C/C(=O)c2c(O)cc(O)c(CC=C(C)C)c2O)cc(OC)c1OC	78.5	
CC(C)=CCc1c(O)cc(O)c2c1OC(c1cccc(Br)c1)CC2=O (racemic)	78.2	1.56
CC(C)=CCc1c(O)cc(O)c2c1OC(c1ccccc1)CC2=O (racemic)	122	5.79
CC(C)=CCc1c(O)cc(O)c(C(=O)/C=C/c2ccc(Cl)cc2)c1O	64.4	679
COc1cc(-c2cc(=O)c3c(O)cc(O)c(CC=C(C)C)c3o2)ccc1O	70.6	49.3
